Experimental findings from ChEMBL document CHEMBL3351663, “Discovery of acylurea isosteres of 2-acylaminothiadiazole in the azaxanthene series of glucocorticoid receptor agonists” (Bioorg Med Chem Lett, 2014) are described below.

Structures are written as SMILES.

Data set [1] deals with Rattus norvegicus. Kind of data set: Antiinflammatory activity in Lewis rat assessed as inhibition of LPS-induced TNF-alpha production at 30 mg/kg, po administered 90 mins prior to LPS challenge measured after 90 mins relative to vehicle-treated control. The data set is classed as functional.
The target in the next data set is T1, Progesterone receptor (Homo sapiens, UniProt P06401).
T1 sequence (P06401 whole entry): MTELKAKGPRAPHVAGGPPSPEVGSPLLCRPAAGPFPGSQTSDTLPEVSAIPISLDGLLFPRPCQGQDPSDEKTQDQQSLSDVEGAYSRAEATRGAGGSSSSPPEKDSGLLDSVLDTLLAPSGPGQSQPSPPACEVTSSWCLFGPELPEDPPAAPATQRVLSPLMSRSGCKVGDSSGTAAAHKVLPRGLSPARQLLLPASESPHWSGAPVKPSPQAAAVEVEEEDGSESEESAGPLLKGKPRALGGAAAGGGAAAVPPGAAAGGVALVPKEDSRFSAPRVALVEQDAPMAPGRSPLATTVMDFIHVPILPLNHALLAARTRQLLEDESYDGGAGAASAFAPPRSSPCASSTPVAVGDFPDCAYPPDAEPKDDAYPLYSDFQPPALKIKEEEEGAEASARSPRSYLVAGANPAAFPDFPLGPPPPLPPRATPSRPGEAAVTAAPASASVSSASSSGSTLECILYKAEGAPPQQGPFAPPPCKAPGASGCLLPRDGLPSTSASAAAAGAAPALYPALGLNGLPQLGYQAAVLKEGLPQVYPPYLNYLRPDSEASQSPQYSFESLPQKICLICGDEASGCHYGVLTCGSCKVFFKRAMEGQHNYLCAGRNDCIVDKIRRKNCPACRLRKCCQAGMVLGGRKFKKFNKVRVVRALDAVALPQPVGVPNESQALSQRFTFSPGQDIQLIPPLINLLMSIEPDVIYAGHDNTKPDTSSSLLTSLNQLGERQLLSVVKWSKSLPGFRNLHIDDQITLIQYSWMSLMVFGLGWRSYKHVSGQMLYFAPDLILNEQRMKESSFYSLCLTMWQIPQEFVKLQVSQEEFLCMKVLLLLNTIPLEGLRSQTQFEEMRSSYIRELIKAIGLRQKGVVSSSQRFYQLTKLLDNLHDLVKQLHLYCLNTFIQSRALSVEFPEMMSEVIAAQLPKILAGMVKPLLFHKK
Kind of data set: Binding affinity to progesterone receptor (unknown origin) by fluorescence polarization assay.

A short description of data set [2]: Half life in rat liver microsomes. Type of data set: ADME.
In data set [3] the target is T2, Glucocorticoid receptor (Homo sapiens, UniProt P04150).
T2 sequence (P04150 whole entry): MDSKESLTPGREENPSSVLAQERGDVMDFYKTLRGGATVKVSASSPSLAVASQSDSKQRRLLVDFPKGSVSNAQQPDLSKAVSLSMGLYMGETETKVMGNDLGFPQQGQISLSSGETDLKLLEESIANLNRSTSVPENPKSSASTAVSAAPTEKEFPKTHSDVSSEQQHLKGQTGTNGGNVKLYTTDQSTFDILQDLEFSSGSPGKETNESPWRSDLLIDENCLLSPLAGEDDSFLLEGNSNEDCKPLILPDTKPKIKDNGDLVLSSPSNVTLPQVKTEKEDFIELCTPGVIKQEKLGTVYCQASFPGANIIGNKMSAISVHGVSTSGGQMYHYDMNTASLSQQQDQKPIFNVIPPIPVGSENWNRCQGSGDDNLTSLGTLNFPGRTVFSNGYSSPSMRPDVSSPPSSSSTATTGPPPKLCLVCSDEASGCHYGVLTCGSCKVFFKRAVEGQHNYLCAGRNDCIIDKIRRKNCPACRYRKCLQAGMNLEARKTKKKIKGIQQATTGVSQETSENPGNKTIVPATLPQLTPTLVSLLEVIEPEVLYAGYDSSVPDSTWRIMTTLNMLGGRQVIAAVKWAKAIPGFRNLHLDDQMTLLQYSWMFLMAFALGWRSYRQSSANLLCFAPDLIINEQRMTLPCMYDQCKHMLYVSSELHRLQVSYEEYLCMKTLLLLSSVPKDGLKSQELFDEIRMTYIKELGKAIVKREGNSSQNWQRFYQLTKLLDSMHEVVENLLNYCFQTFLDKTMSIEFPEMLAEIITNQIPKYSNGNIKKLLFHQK
The experiment in a line: Agonist activity at glucocorticoid receptor in human A549 cells assessed as E-selectin transrepression by luciferase reporter gene assay. Type of data set: cell-based.

Data set [4] has as its target T2, Glucocorticoid receptor. The experiment in a line: Agonist activity at glucocorticoid receptor in human HeLa cells assessed as NP-1 transactivation by luciferase reporter gene assay. Type of data set: cell-based.
A short description of data set [5]: Drug uptake in Lewis rat serum at 10 mg/kg, po after 3 hrs. Type of data set: ADME, organism-based. The arrangement: dose 10 mg/kg, route oral. Particulars: read-out: Drug uptake.
In data set [6] the test system is Liver microsome. The experiment in a line: Metabolic stability in rat liver microsomes assessed as compound remaining.
Data set [7] has as its target T2, Glucocorticoid receptor. The experiment in a line: Binding affinity to glucocorticoid receptor (unknown origin) by fluorescence polarization assay.
Data set [8] in a line: Half life in human liver microsomes. Conditions: liver microsomes.
Data set [9] can be described thus: Clearance in rat at 1 mg/kg, iv. Particulars: in vivo. Type of data set: ADME, organism-based. The arrangement: dose 1 mg/kg, route intravenous.
Data set [10] can be described thus: Half life in dog liver microsomes. The data set is classed as ADME, Canis lupus familiaris.
In data set [11] the test system is Liver microsome. Kind of data set: Metabolic stability in human liver microsomes assessed as compound remaining.
A short description of data set [12]: Clearance in iv dosed dog. Type of data set: ADME, organism-based, Canis lupus familiaris. Conditions: in vivo.
The subject of a further data set is Liver. The experiment in a line: Metabolic stability in mouse liver microsomes assessed as compound remaining.
The nature of data set [13]: Oral bioavailability in rat at 10 mg/kg. The data set is classed as ADME, organism-based. Conditions: in vivo.
For data set [14], the species on record is Rattus norvegicus. The experiment in a line: animal or person. Type of data set: functional. Particulars: Lewis, route oral.
In data set [15] the target is T2, Glucocorticoid receptor. More on the design: species or system Blood.
The nature of data set [16]: Oral bioavailability in dog at 5 mg/kg. The data set is classed as ADME, organism-based, Canis lupus familiaris. Conditions: in vivo.
In data set [17] the target is T2, Glucocorticoid receptor. The experiment in a line: Agonist activity at glucocorticoid receptor in human A549 cells assessed as AP-1 transrepression by luciferase reporter gene assay. Type of data set: cell-based.

Take `C[C@]12C=CC(=O)C=C1CC[C@@H]1[C@@H]2[C@@H](O)C[C@@]2(C)[C@H]1CC[C@]2(O)C(=O)CO` [PREDNISOLONE]: the inhibition in vivo at 30 mg/kg in the data set on Rattus norvegicus [1] came out at 75%.
For `CC(C)Oc1ccc(-c2ccc3c(n2)Oc2c(F)cccc2[C@@H]3C(C)(C)C(=O)NC(N)=O)cn1`, the Ki on Progesterone receptor is 313 nM; on Glucocorticoid receptor [7] it was 0.7 nM. Also, the half-life was found to be 0.233 h in [2], 3.18 h in data set [8] and 1.63 h in data set [10]. Further, the 50% effective concentration (EC50) on Glucocorticoid receptor [3] was determined as 3.8 nM; at Glucocorticoid receptor [4] it was 59.2 nM; at Glucocorticoid receptor [15] it was 355 nM; at Glucocorticoid receptor [17], 6.7 nM. Also, the concentration at 3 h in [5] came to 500 nM. Besides, the Stability was 58% with Liver microsome [6], 97% in the data set with Liver microsome [11] and 86% in the data set with Liver. Also, the clearance in [9] is 20.8 mL/min/kg; in data set [12], 9 mL/min/kg. In addition, the values for the bioavailability in [13] and in [16] were 25.7% and 82%, respectively. In the data set listed under Rattus norvegicus [14], the inhibition in vivo at 10 mg/kg stood at 69%.
